System: KRAS patient-derived spheroids with HUVEC/MSC, viability
Assay: Anticancer human tumor 519858-162-T-J1-PDC patient-derived colon adenocarcinoma cell line growth inhibition [KRAS2]
Settings: for viability, T/C: stronger effect = lower value
Outline: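 Combination screen of spheroid viability in tumor-cell co-cultures with endothelial (HUVEC) and mesenchymal stem cell stroma. Each agent was tested in half-log dilutions, topping at clinical Cmax or at 10 microM without a known Cmax.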

[1] = curve of first compound, second compound 0.1 µM
[2] = curve of first compound, second compound 0.316 µM
[3] = curve of first compound, second compound 1 µM
[4] = curve of first compound, second compound 3.16 µM
[5] = curve of first compound, second compound 10 µM
[6] = second compound 0.1 µM, first compound 0.01 µM
[7] = second compound 0.1 µM, first compound 0.0316 µM
[8] = second compound 0.1 µM, first compound 0.1 µM
[9] = second compound 0.316 µM, first compound 0.01 µM
[10] = second compound 0.316 µM, first compound 0.0316 µM
[11] = second compound 0.316 µM, first compound 0.1 µM
[12] = second compound 1 µM, first compound 0.01 µM
[13] = second compound 1 µM, first compound 0.0316 µM
[14] = second compound 1 µM, first compound 0.1 µM
[15] = second compound 3.16 µM, first compound 0.01 µM
[16] = second compound 3.16 µM, first compound 0.0316 µM
[17] = second compound 3.16 µM, first compound 0.1 µM
[18] = second compound 10 µM, first compound 0.01 µM
[19] = second compound 10 µM, first compound 0.0316 µM
[20] = second compound 10 µM, first compound 0.1 µM
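Further: compound exposure lasted seven days before readout.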
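Wherever viability, T/C is given: 100% = DMSO vehicle control viability.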

SMILES	IC50 [1] [nM]	IC50 [2] [nM]	IC50 [3] [nM]	IC50 [4] [nM]	IC50 [5] [nM]	viability, T/C [6] [%]	viability, T/C [7] [%]	viability, T/C [8] [%]	viability, T/C [9] [%]	viability, T/C [10] [%]	viability, T/C [11] [%]	viability, T/C [12] [%]	viability, T/C [13] [%]	viability, T/C [14] [%]	viability, T/C [15] [%]	viability, T/C [16] [%]	viability, T/C [17] [%]	viability, T/C [18] [%]	viability, T/C [19] [%]	viability, T/C [20] [%]	also measured
CC(=O)OC12COC1CC(O)C1(C)C(=O)C(O)C3=C(C)C(OC(=O)C(O)C(NC(=O)OC(C)(C)C)c4ccccc4)CC(O)(C(OC(=O)c4ccccc4)C21)C3(C)C (configuration not stated) + C=CC(=O)N1CCN(c2nc(=O)n(-c3c(C)ccnc3C(C)C)c3nc(-c4c(O)cccc4F)c(F)cc23)C(C)C1	> 3160	> 3160	> 3160	> 3160	> 3160	121	80.8	98.2	84.7	68.9	84.3	62.8	80.2	90.5	54.7	74.6	70	62.1	79	84.5	viability, T/C (second compound 0.1 µM, first compound 0.316 µM): 89.6%; viability, T/C (second compound 0.1 µM, first compound 1 µM): 72.3%; viability, T/C (second compound 0.1 µM, first compound 3.16 µM): 62.1%; viability, T/C (second compound 0.316 µM, first compound 0.316 µM): 93.1%; viability, T/C (second compound 0.316 µM, first compound 1 µM): 77.5%; viability, T/C (second compound 0.316 µM, first compound 3.16 µM): 64.7%; viability, T/C (second compound 1 µM, first compound 0.316 µM): 83.5%; viability, T/C (second compound 1 µM, first compound 1 µM): 74.1%; viability, T/C (second compound 1 µM, first compound 3.16 µM): 67.8%; viability, T/C (second compound 3.16 µM, first compound 0.316 µM): 103%; viability, T/C (second compound 3.16 µM, first compound 1 µM): 69.7%; viability, T/C (second compound 3.16 µM, first compound 3.16 µM): 75.8%; viability, T/C (second compound 10 µM, first compound 0.316 µM): 68.5%; viability, T/C (second compound 10 µM, first compound 1 µM): 64.8%; viability, T/C (second compound 10 µM, first compound 3.16 µM): 69.3%
Cn1nccc1Nc1nccc(-c2cc3c(s2)C(C)(C)N(CCN2CCOCC2)C3=O)n1																					viability, T/C (compound 0.0316 µM): 95.4% [middle of 5 runs]; viability, T/C (compound 0.1 µM): 92.5% [middle of 5 runs]; viability, T/C (compound 0.316 µM): 87.5% [middle of 5 runs]; viability, T/C (compound 1 µM): 69.5% [middle of 5 runs]; viability, T/C (compound 10 µM): 31.8% [middle of 5 runs]
CC(C)n1nc(-c2ccc3oc(N)nc3c2)c2c(N)ncnc21 + C=CC(=O)N1CCN(c2nc(=O)n(-c3c(C)ccnc3C(C)C)c3nc(-c4c(O)cccc4F)c(F)cc23)C(C)C1	> 100	> 100	> 100	> 100	81.5	67.5	76.3	60.1	58.9	57.6	54.5	56.7	87.3	54.9	68.8	64	56.1	86.7	62.3	47.1	viability, T/C (second compound 0.1 µM, first compound 0.000316 µM): 114%; viability, T/C (second compound 0.1 µM, first compound 0.001 µM): 102%; viability, T/C (second compound 0.1 µM, first compound 0.00316 µM): 104%; viability, T/C (second compound 0.316 µM, first compound 0.000316 µM): 87.5%; viability, T/C (second compound 0.316 µM, first compound 0.001 µM): 94%; viability, T/C (second compound 0.316 µM, first compound 0.00316 µM): 70.2%; viability, T/C (second compound 1 µM, first compound 0.000316 µM): 108%; viability, T/C (second compound 1 µM, first compound 0.001 µM): 78.4%; viability, T/C (second compound 1 µM, first compound 0.00316 µM): 67.3%; viability, T/C (second compound 3.16 µM, first compound 0.000316 µM): 94.3%; viability, T/C (second compound 3.16 µM, first compound 0.001 µM): 75.1%; viability, T/C (second compound 3.16 µM, first compound 0.00316 µM): 74.6%; viability, T/C (second compound 10 µM, first compound 0.000316 µM): 85.4%; viability, T/C (second compound 10 µM, first compound 0.001 µM): 76.6%; viability, T/C (second compound 10 µM, first compound 0.00316 µM): 69.6%
COc1cc2nccc(Oc3ccc(NC(=O)C4(C(=O)Nc5ccc(F)cc5)CC4)cc3)c2cc1OC																					viability, T/C (compound 0.316 µM): 86.4% [middle of 5 runs]; IC50 (curve of compound): > 10000 nM

Source: PubChem BioAssay AID1963872 (Molecular Pharmacology Branch, DTP, NCI, 2024)
